The term pIC50 denotes the IC50 on a negative log10 scale, so that one unit is a factor of ten.

Test [1] concerns the target T1, Recombinant human 17β-HSD13 (Homo sapiens, UniProt Q7Z5P4).
T1 construct: host or cells: Sf9 insect cells
T1 sequence (Q7Z5P4 20-300): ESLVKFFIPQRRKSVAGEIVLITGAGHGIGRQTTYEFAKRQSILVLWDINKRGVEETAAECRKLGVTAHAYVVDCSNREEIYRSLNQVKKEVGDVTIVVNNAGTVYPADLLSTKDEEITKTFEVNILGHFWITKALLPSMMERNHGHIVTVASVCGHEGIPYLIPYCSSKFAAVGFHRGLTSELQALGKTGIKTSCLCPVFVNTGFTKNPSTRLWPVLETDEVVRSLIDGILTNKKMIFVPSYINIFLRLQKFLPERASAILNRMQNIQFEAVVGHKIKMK
Nature of the test: 17β-HSD13 rapid-fire mass spectrometry assay (RF/MS assay). To be noted: inhibition of 17β-HSD13, RF/MS assay; HSD17B13 80 nM, LTB4 10 μM, NAD+ 0.5 mM, RT 3 h. It counts as biochemical. From the text:
17(3-HSD13 rapid-fire mass spectrometry assay (RF/MS assay). Recombinant human 17β-HSD13 was expressed and purified from sf9 cells at Charles River Labs (Saffron Walden, UK). Leukotriene B4 (Catalog #71160-24-2) and 12-oxoleukotriene B4 (Catalog #20140) were purchased from Cayman Chemicals (Ann Arbor, MI). NAD+ (Catalog #N8285), BSA (Catalog #A7030), DMSO (Catalog #D2650), and Tween-20 (Catalog #11332465001) were purchased from Sigma (St. Louis, MO). Formic acid (Catalog #28905) was from ThermoFisher Scientific and 384 deep well PP microplates (Catalog #784261) were from Greiner Bio-One. In a typical IC50 assay performed in a 384w PP microplate, test compounds (0-100 μM) were incubated with HSD17B13 (80 nM), LTB4 (10 μM), and NAD^+ (0.5 mM) in 10 μL assay buffer (20 mM Tris (pH 7.5), BSA (0.005%), and Tween-20 (0.01%)) at RT for 3 h. The assays were quenched by adding 20 μL of 0.15% aqueous formic acid and the plates were frozen at −80° C. RF/MS analysis was performed at PureHoney Technologies (Billerica, MA) on a RapidFire RF300 system (Agilent Technologies, Inc.) coupled to an API 4000 triple quadrupole mass spectrometer (Sciex) equipped with Agilent RapidFire cartridge type A (C4). The mobile phase was 0.09% formic acid and 0.01% trifluoracetic acid in water (Buffer A) and 0.09% formic acid and 0.01% trifluoracetic acid in 80% aqueous acetonitrile (Buffer B). The RapidFire method conditions were the following: 250 ms aspirate, 3000 ms load/desalt, 4000 ms elute, and 500 ms re-equilibrate. RF-MS/MS was performed in negative polarity (−4500 V), the source temperature was 650° C., and gas 1 and gas 2 settings for nitrogen were set to 50. The curtain gas and collision gas were also nitrogen and were set to 20 and 12, respectively. Leukotriene B4 (335.3) and 12-oxoLeukotriene B4 (333.3) SRM transitions were optimized with Discovery Quant software and extracted ion counts for these analytes were determined.
Data Analysis. 17β-HSD13 enzyme activity was measured as percent conversion of extracted ion counts and normalized to high and low controls to determine percent residual activity at various concentrations of test compounds. Data was fitted to normalized activity (variable slope) versus concentration fit in GraphPad Prism 7 to determine IC50. All experiments were run in duplicates.
By using the above method, the inhibition of 17β-HSD13 was evaluated for the compounds of Formula (I). IC50 ranges are as follows: A is <0.1 μM; B is 0.1 μM-1.0 μM; C is 1.0 μM-10 μm; and D is >10 μM.

Test [2] has as its target T2, human HSD17β13 (stable HEK293T cell line overexpressing human HSD17β13) (Homo sapiens, UniProt Q7Z5P4).
T2 construct: expressed in transfected cells
T2 sequence (Q7Z5P4 20-300): T1 sequence (Q7Z5P4 20-300)
The experiment in a line: HSD17β13 inhibitor cell-based screening assay (conversion of estradiol-d2 to estrone-d2 by RF-MS). To be noted: conversion of estradiol-d2 to estrone-d2 after 24 hours. In outline:
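Cellular IC50 is based on 24-h conversion of estradiol-d2 (5 μM final) to estrone-d2, measured by RF-MS in acetonitrile-precipitated supernatants. Assay uses human HSD17β13-overexpressing HEK293T cells (7.5E3/well, 1% charcoal/dextran FBS MEM), with compounds dosed as a 9-point 1:3 series to 10 μM final. ATPlite luminescence on overexpressing and parent lines measured viability.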

Structures are written as SMILES. pIC50: −log10 of the molar value. Bounds are passed on as bounds.

With `COC(=O)c1cccc2c1sc1nc(-c3ccc(OC)cc3C3CC3)n(Cc3cnco3)c(=O)c12` [Example 1, methyl 2-(2-cyclopropyl-4-methoxyphenyl)-3-(oxazol-5-ylmethyl)-4-oxo-3,4-dihydrobenzo[4,5]thieno[2,3-d]pyrimidine-8-carboxylate], the values for the pIC50 in test [1] and in test [2] were less than 5.00 and 4.00 to 6.00, respectively.

With `COc1ccc(-c2nc3sc4c(C(=O)O)cccc4c3c(=O)n2Cc2cnco2)c(C2CC2)c1` [Example 2, 2-(2-cyclopropyl-4-methoxyphenyl)-3-(oxazol-5-ylmethyl)-4-oxo-3,4-dihydrobenzo[4,5]thieno[2,3-d]pyrimidine-8-carboxylic acid], the pIC50 is 6.00 to 7.00 in test [1] and 4.00 to 6.00 in test [2].

For `COc1ccc(-c2nc3sc4c(C(N)=O)cccc4c3c(=O)n2Cc2cnco2)c(C2CC2)c1` [Example 3, 2-(2-cyclopropyl-4-methoxyphenyl)-3-(oxazol-5-ylmethyl)-4-oxo-3,4-dihydrobenzo[4,5]thieno[2,3-d]pyrimidine-8-carboxamide], the negative-log IC50 (pIC50) in test [1] is 5.00 to 6.00; in test [2], 4.00 to 6.00.

`COc1ccc(-c2nc3sc4c(NC(C)=O)cccc4c3c(=O)n2Cc2cnco2)c(C2CC2)c1` [Example 4, N-(2-(2-cyclopropyl-4-methoxyphenyl)-3-(oxazol-5-ylmethyl)-4-oxo-3,4-dihydrobenzo[4,5]thieno[2,3-d]pyrimidin-8-yl)acetamide]: the pIC50 was less than 5.00 in test [1] and 4.00 to 6.00 in test [2].

Regarding `COc1ccc(-c2nc3sc4c(N(C(C)=O)C(C)=O)cccc4c3c(=O)n2Cc2cnco2)c(C2CC2)c1` [Example 5, N-acetyl-N-(2-(2-cyclopropyl-4-methoxyphenyl)-3-(oxazol-5-ylmethyl)-4-oxo-3,4-dihydrobenzo[4,5]thieno[2,3-d]pyrimidin-8-yl)acetamide], the pIC50 was less than 5.00 in test [1] and 4.00 to 6.00 in test [2].

For the molecule `COc1ccc(-c2nc3sc4c(N)cccc4c3c(=O)n2Cc2cnco2)c(C2CC2)c1` [Example 6, 8-amino-2-(2-cyclopropyl-4-methoxyphenyl)-3-(oxazol-5-ylmethyl)benzo[4,5]thieno[2,3-d]pyrimidin-4(3H)-one], the pIC50 is less than 5.00 in test [1] and 4.00 to 6.00 in test [2].

In the case of `COc1ccc(-c2nc3sc4c(NS(C)(=O)=O)cccc4c3c(=O)n2Cc2cnco2)c(C2CC2)c1` [Example 7, N-(2-(2-cyclopropyl-4-methoxyphenyl)-3-(oxazol-5-ylmethyl)-4-oxo-3,4-dihydrobenzo[4,5]thieno[2,3-d]pyrimidin-8-yl)methanesulfonamide], the results for the pIC50 in test [1] and in test [2] were less than 5.00 and 4.00 to 6.00, respectively.

Take `COc1ccc(-c2nc3sc4c(OC)cccc4c3c(=O)n2Cc2cnco2)c(C2CC2)c1` [Example 8, 2-(2-cyclopropyl-4-methoxyphenyl)-8-methoxy-3-(oxazol-5-ylmethyl)benzo[4,5]thieno[2,3-d]pyrimidin-4(3H)-one]: the pIC50 was less than 5.00 in test [1] and 4.00 to 6.00 in test [2].

As for `COc1ccc(-c2nc3sc4c(-c5ncco5)cccc4c3c(=O)n2Cc2cnco2)c(C2CC2)c1` [Example 9, 2-(2-cyclopropyl-4-methoxyphenyl)-8-(oxazol-2-yl)-3-(oxazol-5-ylmethyl)benzo[4,5]thieno[2,3-d]pyrimidin-4(3H)-one], the pIC50 in test [1] was less than 5.00; in test [2], 4.00 to 6.00.

For `CCCCc1cccc2c1sc1nc(-c3ccc(OC)cc3C3CC3)n(Cc3cnco3)c(=O)c12` [Example 10, 8-butyl-2-(2-cyclopropyl-4-methoxyphenyl)-3-(oxazol-5-ylmethyl)benzo[4,5]thieno[2,3-d]pyrimidin-4(3H)-one], the pIC50 was less than 5.00 in test [1] and 6.30 to 7.00 in test [2].

`COc1ccc(-c2nc3sc4c(B(O)O)cccc4c3c(=O)n2Cc2cnco2)c(C2CC2)c1` [Example 11, (2-(2-cyclopropyl-4-methoxyphenyl)-3-(oxazol-5-ylmethyl)-4-oxo-3,4-dihydrobenzo[4,5]thieno[2,3-d]pyrimidin-8-yl)boronic acid]: the pIC50 in test [1] was 6.00 to 7.00; in test [2] it was 6.00 to 6.30.

For `COc1ccc(-c2nc3sc4c(F)cccc4c3c(=O)n2Cc2cnco2)c(C2CC2)c1` [Example 13, 2-(2-cyclopropyl-4-methoxyphenyl)-8-fluoro-3-(oxazol-5-ylmethyl)benzo[4,5]thieno[2,3-d]pyrimidin-4(3H)-one], the values for the pIC50 in test [1] and in test [2] were less than 5.00 and 4.00 to 6.00, respectively.

As for `C=Cc1cccc2c1sc1nc(-c3ccc(OC)cc3C3CC3)n(Cc3cnco3)c(=O)c12` [Example 14, 2-(2-cyclopropyl-4-methoxyphenyl)-3-(oxazol-5-ylmethyl)-8-vinylbenzo[4,5]thieno[2,3-d]pyrimidin-4(3H)-one], the pIC50 in test [1] is less than 5.00; in test [2], 4.00 to 6.00.

For `COc1ccc(-c2nc3sc4c(C=O)cccc4c3c(=O)n2Cc2cnco2)c(C2CC2)c1` [Example 15, 2-(2-cyclopropyl-4-methoxyphenyl)-3-(oxazol-5-ylmethyl)-4-oxo-3,4-dihydrobenzo[4,5]thieno[2,3-d]pyrimidine-8-carbaldehyde], the pIC50 is less than 5.00 in test [1] and 4.00 to 6.00 in test [2].

`COc1ccc(-c2nc3sc4c(C(F)F)cccc4c3c(=O)n2Cc2cnco2)c(C2CC2)c1` [Example 16, 2-(2-cyclopropyl-4-methoxyphenyl)-8-(difluoromethyl)-3-(oxazol-5-ylmethyl)benzo[4,5]thieno[2,3-d]pyrimidin-4(3H)-one]: the pIC50 in test [1] was less than 5.00; in test [2], 4.00 to 6.00.

On to `COc1ccc(-c2nc3sc4c(O[C@@H]5O[C@H](C(=O)O)[C@@H](O)[C@H](O)[C@H]5O)cccc4c3c(=O)n2Cc2cnco2)c(C2CC2)c1` [Example 17, (2S,3S,4S,5R,6S)-6-((2-(2-cyclopropyl-4-methoxyphenyl)-3-(oxazol-5-ylmethyl)-4-oxo-3,4-dihydrobenzo[4,5]thieno[2,3-d]pyrimidin-8-yl)oxy)-3,4,5-trihydroxytetrahydro-2H-pyran-2-carboxylic acid], for which the values for the pIC50 in test [1] and in test [2] were 5.00 to 6.00 and 4.00 to 6.00, respectively.

For `COc1ccc(-c2nc3sc4c(O)c(Cl)cc(Cl)c4c3c(=O)n2Cc2cnco2)c(C2CC2)c1` [Example 18, 5,7-dichloro-2-(2-cyclopropyl-4-methoxyphenyl)-8-hydroxy-3-(oxazol-5-ylmethyl)benzo[4,5]thieno[2,3-d]pyrimidin-4(3H)-one], the pIC50 is 6.00 to 7.00 in test [1] and 6.30 to 7.00 in test [2].

Regarding `COc1cc(C2CC2)c(-c2nc3sc4c(O)c(Cl)cc(Cl)c4c3c(=O)n2Cc2cnco2)cc1Cl` [Example 19, 5,7-dichloro-2-(5-chloro-2-cyclopropyl-4-methoxyphenyl)-8-hydroxy-3-(oxazol-5-ylmethyl)benzo[4,5]thieno[2,3-d]pyrimidin-4(3H)-one], the pIC50 was 6.00 to 7.00 in test [1] and 6.30 to 7.00 in test [2].

Consider `COc1ccc(-c2nc3sc4c(OCCO)cccc4c3c(=O)n2Cc2cnco2)c(C2CC2)c1` [Example 20, 2-(2-cyclopropyl-4-methoxyphenyl)-8-(2-hydroxyethoxy)-3-(oxazol-5-ylmethyl)benzo[4,5]thieno[2,3-d]pyrimidin-4(3H)-one], for which the pIC50 in test [1] was less than 5.00; in test [2], 4.00 to 6.00.

The values above are taken from patent publication US20250154163A1, “Pyrimidinone-Containing 17-Beta-Hydroxysteroid Dehydrogenase Type 13 Inhibitors” (ENANTA PHARMACEUTICALS, INC., priority 2023, published 2025).
